Results as given in the NIST ThermoML archive (doi:10.1016/j.jct.2015.09.022).
Numbers after ± are expanded uncertainties.

Assay: xn = mol fraction of the nth substance listed
Conditions: 100.7 kPa, Liquid; for viscosity: Falling or rolling sphere viscometry; for speed of sound: Frequency=3 MHz, Sing-around technique in a fixed-path interferometer; for mass density: Vibrating tube method

CCCC=O [butanal] + CCCC[n+]1ccn(C)c1.O=S(=O)([N-]S(=O)(=O)C(F)(F)F)C(F)(F)F
Conditions | mass density, 298.15 K [kg/m3] | mass density, 303.15 K [kg/m3] | mass density, 308.15 K [kg/m3] | speed of sound, 298.15 K [m/s] | speed of sound, 303.15 K [m/s] | speed of sound, 308.15 K [m/s] | viscosity, 298.15 K [mPa·s] | viscosity, 303.15 K [mPa·s] | viscosity, 308.15 K [mPa·s]
x2 = 0 | 796.99 ± 0.21 | 791.8 ± 0.21 | 786.41 ± 0.21 | 1193.8 ± 1.4 | 1172.7 ± 1.4 | 1151.6 ± 1.4 | 0.43 ± 0.03 | 0.4 ± 0.02 | 0.39 ± 0.02
x2 = 0.0222 | – | – | – | 1192 ± 1.4 | 1171.6 ± 1.4 | 1150.1 ± 1.4 | – | – | –
x2 = 0.0464 | – | – | – | 1190.7 ± 1.4 | 1170.9 ± 1.4 | 1149.4 ± 1.4 | – | – | –
x2 = 0.0748 | – | – | – | 1189.2 ± 1.4 | 1170 ± 1.4 | 1148.8 ± 1.4 | – | – | –
x2 = 0.1056 | 979.73 ± 0.46 | 975.4 ± 0.34 | 971.06 ± 0.34 | 1187.5 ± 1.4 | 1169 ± 1.4 | 1149.6 ± 1.4 | 1.53 ± 0.09 | 1.24 ± 0.08 | 0.98 ± 0.06
x2 = 0.2135 | 1105.53 ± 0.33 | 1101.73 ± 0.31 | 1097.08 ± 0.31 | 1191.7 ± 1.4 | 1173.6 ± 1.4 | 1154.8 ± 1.4 | 3.32 ± 0.2 | 2.62 ± 0.16 | 1.98 ± 0.12
x2 = 0.3088 | 1185.23 ± 0.32 | 1181.18 ± 0.32 | 1176.97 ± 0.32 | 1196.2 ± 1.4 | 1179.9 ± 1.4 | 1161.6 ± 1.4 | 5.62 ± 0.34 | 4.29 ± 0.26 | 3.18 ± 0.19
x2 = 0.4153 | 1251.86 ± 0.36 | 1247.94 ± 0.36 | 1243.96 ± 0.36 | 1200.5 ± 1.4 | 1185.4 ± 1.4 | 1168.7 ± 1.4 | 8.98 ± 0.55 | 6.76 ± 0.41 | 4.87 ± 0.3
x2 = 0.5025 | 1294.27 ± 0.4 | 1290.44 ± 0.4 | 1286.66 ± 0.4 | 1204.2 ± 1.5 | 1189.5 ± 1.5 | 1174.3 ± 1.5 | 12.42 ± 0.75 | 9.23 ± 0.56 | 6.66 ± 0.41
x2 = 0.5987 | 1332.31 ± 0.44 | 1328.49 ± 0.44 | 1324.67 ± 0.44 | 1208.6 ± 1.5 | 1195.7 ± 1.5 | 1180.5 ± 1.5 | 16.22 ± 0.99 | 12.08 ± 0.74 | 8.73 ± 0.53
x2 = 0.6852 | 1360.82 ± 0.48 | 1356.74 ± 0.48 | 1352.96 ± 0.48 | 1213.2 ± 1.5 | 1200.6 ± 1.5 | 1186.4 ± 1.5 | 20.37 ± 1.2 | 15.05 ± 0.92 | 10.93 ± 0.67
x2 = 0.7729 | 1385.61 ± 0.52 | 1381.37 ± 0.52 | 1377.44 ± 0.51 | 1217.5 ± 1.5 | 1206.6 ± 1.5 | 1193.6 ± 1.5 | 25.55 ± 1.6 | 19.07 ± 1.2 | 14.71 ± 0.89
x2 = 0.8852 | 1412.72 ± 0.57 | 1408.37 ± 0.56 | 1404.09 ± 0.56 | 1223.9 ± 1.5 | 1213.6 ± 1.5 | 1201 ± 1.5 | 34.29 ± 2.1 | 26.85 ± 1.6 | 21.85 ± 1.3
